Test [1] deals with Vespa analis insularis (Fabricius) nest. The test is described as follows: Spraying on nest surface, philopatry and homing, Experiment 2. The class given is in vivo. The source says: The inventors investigated the worker's philopatry and homing circumstance to the nest as follows. After the above-described experiment 1, benzyl alcohol was intermittently sprayed three times on the entire surface of the same nest of Vespa analis insularis (Fabricius) by using a sprayer equipped with a nozzle having a length of 1.5 m. An adult wasp on the nest surface, worker entering and leaving the nest holes and worker coming close to the nest were shot with a video camera. The experiment was started at 14:01:30 and finished at 14:10. The numbers of the adult wasp on the nest surface and in the nest were counted immediately after the experiment. The number of adult wasp in the nest was counted by inserting the whole nest in a paper bag, sealing the paper bag, and then deconstructing the nest.

Test [2] has as its system P. jokahamae jokahamae Radoszkowski worker. The test is described as follows: Spray on worker collecting Zelkova sap. Type of test: in vivo, Polistes jokahamae jokahamae Radoszkowski. The protocol:
(§1) The experiment involving a worker group of Polistes jokahamae jokahamae Radoszkowski on the exterior wall of a nest found in the campus of Faculty of Agriculture, Kochi University, located on 200 Otsu, Monobe, Nankoku City, Kochi Prefecture, was conducted on Jul. 13, 2015, and the experiment involving a worker of P. jokahamae jokahamae Radoszkowski which collected sap bled from sucking mark by adult Cryptotympana facialis of Zelkova tree stem planted in a private house in Fuseishi-cho, Takamatsu City, Kagawa Prefecture was conducted on July 19 to 22, 2015. In addition, the experiment involving a worker group of P. chinensis antennalis Pe'rez on the exterior wall of a nest found on a branch of a cheesewood planted at a bank of Noda pond located at Fuseishi-cho, Takamatsu City, Kagawa Prefecture was conducted on Jul. 30, 2015.
The experiment was conducted in accordance with the above-described Example 1(1) involving a Vespa mandarinia worker, distilled water as a control example spray and benzyl alcohol as a test liquid example spray were sequentially sprayed on a test object group or a test object worker by using a sprayer, and the behavior from immediately after spraying up to 1 minute later was respectively recorded.

Test [3] concerns P. chinensis antennalis Pe'rez worker group. The test is described as follows: Spray on worker group on nest. Type of test: in vivo. Particulars: 9:02, 1 minute after spraying benzyl alcohol; 32 workers before. The protocol:
as §1
The experiment was conducted in accordance with the above-described Example 1(1) involving a Vespa mandarinia worker, distilled water as a control example spray and benzyl alcohol as a test liquid example spray were sequentially sprayed on a test object group or a test object worker by using a sprayer, and the behavior from immediately after spraying up to 1 minute later was respectively recorded. […]

Where [4] appears, read: after first spray, 14:01:30 to 14:02:20.
The mark [5] stands for this setting: after second spray, 14:02:20 to 14:04:30.
The mark [6] stands for this setting: after third spray, 14:04:30 to 14:10:00.

As to `OCc1ccccc1` [Benzyl alcohol, benzyl alcohol], the “adult wasps on nest surface and in nest at the end of the experiment” value in test [1] (14:10, after three sprays) is “All of the adult wasps got away from the nest”. In test [1] (setting [4]), the Entered nest is 5; the “Flew away from nest” value amounted to 15; the “Flew to and alighted on nest surface and then flew away” value (“Flew to and alighted” below) is 1; the “Flew to and came close to nest surface and then flew away” value (from here on “Flew to and came close”) is on record as 2. Also, in test [1] (setting [5]), the Entered nest came out at 0; the “Flew away from nest” value is given as 10; the “Flew to and alighted” value is reported as 2; the “Flew to and came close” value is recorded as 6. In test [1] (setting [6]), the Entered nest was 0; the “Flew away from nest” value is 2; the “Flew to and alighted” value is on record as 4; the “Flew to and came close” value was 55. Besides, in test [2] (10 workers collecting sap), the “Effective (number of worker)” value came out at 10 and the “No response (number of worker)” value came to 0. Also, in test [2] (10 workers, or without flapping), the “time of flapping behavior before the worker flew away” value was not above 1 s. For the same compound, in test [3], the “Number of P. chinensis antennalis Pe'rez on nest” value is given as 0.

The values above are taken from US11470844B2, “Vespidae wasp repellent” (KINP CO., LTD, priority 2015, dated 2022).
